Entries after “also recorded” stand apart in the source; their conditions may differ.
What was measured:
[1] = tested on: PANC-1 cells; experiment: Uptake in PANC-1 cell line; assay type: cell-based; settings: for Uptake of optical isomers: %ID/mg protein
Description: (§1) Each cell line was seeded in 24 wells at 1 × 10^5 cells/mL and allowed to become sub-confluent on the day of the experiment. Cells were washed with PBS (-) (Fujifilm Wako Pure Chemical, Osaka, Japan) prior to the addition of the compound, which was then replaced with uptake buffer. After treating the cells with the same dose, they were collected at predetermined time points. The cell dose was measured using a γ-counter (Wizard^2 2480; PerkinElmer, Waltham, MA, USA), and the protein content of the sample was determined. Protein content was measured using the BCA method, and the dose was corrected using the protein content (Protein Assay BCA kit, Fujifilm Wako Pure Chemical).
(§2) Figure 2 Comparison of uptake between the labeled compounds. (A) Relation between uptake ratio and LAT1 expression level. Uptake ratios were compared between LAT1-Tet/HEK293 cells. The Y-axis represents the uptake ratio, and the X-axis is concentration of Doxycycline (Dox) (TaKaRa Bio, Shiga, Japan). The collection time was 30 min after treatment. The expression of LAT1 increased with increasing amounts of Dox. (B) Comparison of uptake in PANC-1 cell line. The collection times were 0.5, 1, 5 and 10 min after treatment.
Figure 3 Comparison of intracellular uptake of […]-AAMT-O-Me L-isomer and ^211At-AAMT-O-Me D-isomer of ^211At-AAMT-O-Me. (A) Uptake in Mock/HEK293, LAT1/HEK293, and […] lines. (B) Uptake in PANC-1 cells. The y-axis represents %ID/mg protein. BCH: -Amino-2-norbornanecarboxylic acid. BCH was treated at 20 mM. ** p < 0.01, *** p < 0.001.
(§3) The PANC-1 cell line was obtained from the RIKEN Cell Bank and maintained in RPMI 1640 medium (Fujifilm Wako Pure Chemical, Osaka, Japan) supplemented with 10% inactivated fetal bovine serum (Thermo Fisher Scientific, Waltham, MA, USA). Mock/HEK293, LAT1/HEK293, and LAT2/HEK203 cells were kindly provided by Dr. Kanai. Cell lines controlling LAT1 expression were constructed using the Tet-on system. […]

[2] = tested on: PANC-1 tumor model; experiment: Tissue distribution in nude mice (PANC-1 tumor model); assay type: in vivo, BALB/c nu/nu mice
Description: BALB/c nu/nu mice (male, 5 weeks old) were purchased from Japan SLC (Shizuoka, Japan) and subcutaneously transplanted at a density of 1 × 10^7 cells/mouse. PANC-1 cells that reached the logarithmic growth phase were transplanted subcutaneously by mixing a 1 × 10^8 cells/mL cell suspension with an equivalent volume of Matrigel (Corning, Corning, NY, USA) to obtain 1 × 10^7 cells per mouse. Experiments were performed after the size of the transplanted tumor had exceeded 50 mm^3. The doses in the distribution experiments were as follows: ^211At-AAMT-OH-L (0.501 ± 0.011 MBq/mouse, 19.91 ± 0.59 g, n = 3) and ^211At-AAMT-O-Me-L (0.384 ± 0.003 MBq/mouse, 19.18 ± 0.38 g, n = 6 for Table 3), ^211At-AAMT-O-Me-L (158.10 ± 2.94 kBq/mouse, 19.27 ± 0.64 g, n = 6) and ^211At-AAMT-O-Me-D (135.08 ± 2.35 kBq/mouse, 18.64 ± 0.97 g, n = 6), ^211At-AAMT-O-Et-L (0.682 ± 0.011 MBq/mouse, 20.25 ± 1.41 g, n = 6), ^211At-AAMT-O-Pr-L (0.927 ± 0.020 MBq/mouse, 21.74 ± 0.37 g, n = 6).

[3] = tested on: LAT1-Tet/HEK293 cells; experiment: Uptake versus LAT1 expression level (Dox-induced) in LAT1-Tet/HEK293 cells; assay type: cell-based; settings: collection 30 min after treatment
Description: as §1, §2
as §3, with “system. HEK293 cells were obtained from the RIKEN Cell Bank and maintained in E-MEM (Fujifilm Wako Pure Chemical) supplemented with 10% inactivated fetal bovine serum (Thermo Fisher Scientific) and non-essential amino acids (Fujifilm Wako Pure Chemical). The expression vectors were purchased from VectorBuilder, Inc. (Kanagawa, Japan). The purified viral particle genes were transfected into HEK293 cells. Drug selection and cloning of the cell line (Tet-LAT1/HEK293) were performed.” for “system.”

[4] = nude mice (PANC-1 tumor model), 1 h after injection
[5] = nude mice (PANC-1 tumor model), 3 h after injection
[6] = nude mice (PANC-1 tumor model), 24 h after injection
[7] = nude mice (PANC-1 tumor model), after 24 h

COc1ccc(C[C@@](C)(N)C(=O)O)cc1[211At] [^211At-AAMT-O-Me-D]
Uptake of optical isomers [1]: taken up less | Tissue distribution, Bladder [2, 4]: 1.76 ± 1.64 %ID/g | Tissue distribution, Blood [2, 4]: 3.52 ± 1.89 %ID/g | Tissue distribution, Bone [2, 4]: 0.30 ± 0.12 %ID/g | Tissue distribution, Brain [2, 4]: 0.15 ± 0.01 %ID/g | Tissue distribution, Cecum [2, 4]: 2.35 ± 1.73 %ID/g | Tissue distribution, Colon [2, 4]: 0.85 ± 0.49 %ID/g | Tissue distribution, Heart [2, 4]: 0.53 ± 0.08 %ID/g | Tissue distribution, Kidney [2, 4]: 1.40 ± 0.56 %ID/g | Tissue distribution, Liver [2, 4]: 3.09 ± 0.39 %ID/g | Tissue distribution, Lung [2, 4]: 2.24 ± 0.89 %ID/g | Tissue distribution, Pancreas [2, 4]: 0.61 ± 0.44 %ID/g | Tissue distribution, Salivary glands [2, 4]: 0.30 ± 0.10 %ID/g | Tissue distribution, Small intestine [2, 4]: 2.05 ± 0.81 %ID/g | Tissue distribution, Spleen [2, 4]: 1.70 ± 0.74 %ID/g | Tissue distribution, Stomach [2, 4]: 1.43 ± 0.94 %ID/g | Tissue distribution, Testis [2, 4]: 1.05 ± 0.77 %ID/g | Tissue distribution, Thyroid [2, 4]: 0.14 ± 0.04 %ID/g | Tissue distribution, Tumor [2, 4]: 3.25 ± 1.39 %ID/g | Tissue distribution, Bladder [2, 5]: 1.04 ± 0.97 %ID/g | Tissue distribution, Blood [2, 5]: 1.92 ± 1.16 %ID/g | Tissue distribution, Bone [2, 5]: 0.26 ± 0.12 %ID/g | Tissue distribution, Brain [2, 5]: 0.10 ± 0.03 %ID/g | Tissue distribution, Cecum [2, 5]: 1.32 ± 0.96 %ID/g | Tissue distribution, Colon [2, 5]: 0.40 ± 0.25 %ID/g | Tissue distribution, Heart [2, 5]: 0.37 ± 0.03 %ID/g | Tissue distribution, Kidney [2, 5]: 1.54 ± 0.86 %ID/g | Tissue distribution, Liver [2, 5]: 2.60 ± 0.07 %ID/g | Tissue distribution, Lung [2, 5]: 1.27 ± 0.40 %ID/g | Tissue distribution, Pancreas [2, 5]: 0.48 ± 0.35 %ID/g | Tissue distribution, Salivary glands [2, 5]: 0.33 ± 0.13 %ID/g | Tissue distribution, Small intestine [2, 5]: 1.48 ± 0.37 %ID/g | Tissue distribution, Spleen [2, 5]: 1.81 ± 1.19 %ID/g | Tissue distribution, Stomach [2, 5]: 1.29 ± 0.77 %ID/g | Tissue distribution, Testis [2, 5]: 1.64 ± 1.26 %ID/g | Tissue distribution, Thyroid [2, 5]: 0.14 ± 0.06 %ID/g | Tissue distribution, Tumor [2, 5]: 3.84 ± 2.10 %ID/g

COc1ccc(C[C@](C)(N)C(=O)O)cc1[211At] [^211At-AAMT-O-Me-L, (S)-2-amino-3-(3-(astato-^211At)-4-methoxyphenyl)-2-methylpropanic acid]
Uptake of optical isomers [1]: taken up more | Time-dependent uptake ([1]; collection 0.5, 1, 5 and 10 min after treatment): highest uptake; also recorded: significantly higher uptake than the seed compound | Uptake ratio versus LAT1 expression (doxycycline concentration) [3]: highest increase in uptake | Tissue distribution, Bladder [2, 4]: 0.06 ± 0.00 %ID/g | Tissue distribution, Blood [2, 4]: 7.85 ± 1.17 %ID/g | Tissue distribution, Bone [2, 4]: 0.68 ± 1.27 %ID/g | Tissue distribution, Brain [2, 4]: 0.46 ± 0.00 %ID/g | Tissue distribution, Cecum [2, 4]: 0.46 ± 0.05 %ID/g | Tissue distribution, Colon [2, 4]: 1.14 ± 0.27 %ID/g | Tissue distribution, Heart [2, 4]: 0.86 ± 0.04 %ID/g | Tissue distribution, Kidney [2, 4]: 3.56 ± 0.09 %ID/g | Tissue distribution, Liver [2, 4]: 4.92 ± 0.24 %ID/g | Tissue distribution, Lung [2, 4]: 5.16 ± 0.11 %ID/g | Tissue distribution, Pancreas [2, 4]: 0.58 ± 0.01 %ID/g | Tissue distribution, Salivary glands [2, 4]: 0.58 ± 0.05 %ID/g | Tissue distribution, Small intestine [2, 4]: 3.40 ± 0.36 %ID/g | Tissue distribution, Spleen [2, 4]: 4.34 ± 0.79 %ID/g | Tissue distribution, Stomach [2, 4]: 1.32 ± 0.06 %ID/g | Tissue distribution, Testis [2, 4]: 0.55 ± 0.02 %ID/g | Tissue distribution, Thyroid [2, 4]: 0.20 ± 0.02 %ID/g | Tissue distribution, Tumor [2, 4]: 7.83 ± 0.30 %ID/g | Tissue distribution, Bladder [2, 5]: 0.09 ± 0.01 %ID/g | Tissue distribution, Blood [2, 5]: 10.38 ± 2.28 %ID/g | Tissue distribution, Bone [2, 5]: 0.51 ± 1.35 %ID/g | Tissue distribution, Brain [2, 5]: 0.29 ± 0.01 %ID/g | Tissue distribution, Cecum [2, 5]: 0.43 ± 0.16 %ID/g | Tissue distribution, Colon [2, 5]: 0.68 ± 0.23 %ID/g | Tissue distribution, Heart [2, 5]: 0.76 ± 0.07 %ID/g | Tissue distribution, Kidney [2, 5]: 2.29 ± 0.07 %ID/g | Tissue distribution, Liver [2, 5]: 4.62 ± 0.20 %ID/g | Tissue distribution, Lung [2, 5]: 5.10 ± 0.42 %ID/g | Tissue distribution, Pancreas [2, 5]: 0.36 ± 0.10 %ID/g | Tissue distribution, Salivary glands [2, 5]: 0.78 ± 0.18 %ID/g | Tissue distribution, Small intestine [2, 5]: 2.50 ± 0.42 %ID/g | Tissue distribution, Spleen [2, 5]: 3.97 ± 0.59 %ID/g | Tissue distribution, Stomach [2, 5]: 1.31 ± 0.32 %ID/g | Tissue distribution, Testis [2, 5]: 0.55 ± 0.11 %ID/g | Tissue distribution, Thyroid [2, 5]: 0.23 ± 0.04 %ID/g | Tissue distribution, Tumor [2, 5]: 10.29 ± 0.88 %ID/g | Tissue distribution, Bladder [2, 6]: 0.55 ± 0.13 %ID/g | Tissue distribution, Blood [2, 6]: 0.88 ± 0.23 %ID/g | Tissue distribution, Bone [2, 6]: 0.75 ± 0.18 %ID/g | Tissue distribution, Brain [2, 6]: 0.13 ± 0.04 %ID/g | Tissue distribution, Cecum [2, 6]: 2.09 ± 0.41 %ID/g | Tissue distribution, Colon [2, 6]: 1.69 ± 0.15 %ID/g | Tissue distribution, Heart [2, 6]: 1.29 ± 0.42 %ID/g | Tissue distribution, Kidney [2, 6]: 1.67 ± 0.49 %ID/g | Tissue distribution, Liver [2, 6]: 0.92 ± 0.15 %ID/g | Tissue distribution, Lung [2, 6]: 4.43 ± 1.76 %ID/g | Tissue distribution, Pancreas [2, 6]: 0.59 ± 0.17 %ID/g | Tissue distribution, Salivary glands [2, 6]: 13.65 ± 5.31 %ID/g | Tissue distribution, Small intestine [2, 6]: 1.49 ± 0.29 %ID/g | Tissue distribution, Spleen [2, 6]: 3.12 ± 2.06 %ID/g | Tissue distribution, Stomach [2, 6]: 8.89 ± 2.65 %ID/g | Tissue distribution, Testis [2, 6]: 1.18 ± 0.25 %ID/g | Tissue distribution, Thyroid [2, 6]: 9.37 ± 3.33 %ID/g | Tissue distribution, Tumor [2, 6]: 1.86 ± 0.39 %ID/g | Accumulation remaining in tumors relative to ^211At-AAMT-OH-L [2, 7]: 2.6 times | Blood intensity relative to ^211At-AAMT-OH-L [2, 7]: 22 times | Increase of blood intensity in tumor-bearing mice compared with normal animals ([2]; tumor-bearing mice versus ICR mice): 5 fold
